Data reported in PubChem BioAssay AID330 (DTP/NCI, 2004).
Several values for one entry are separate records, joined by “and”; a condition that tells them apart may be missing. Equal entries are not always repeated. Inconclusive results and toxic doses are left out. Numbered stars: 1 amine (or outer) side, 2 acyl side, 3 side chain; on linkers, the order of the positions; unused ones are H or OH. Bridge positions count the residues as written; N and C are the ends. Square brackets hold non-standard residues; d marks the D form. Peptide text beside a SMILES is read from it. ξ: configuration not given here. X15 = O=C(/C(=C/c1c[nH]c2ccccc12)N[*:1])[*:2]; X16 = CC(c1c[nH]c2ccccc12)C(N[*:1])C(=O)[*:2]; βAsp = O=C(O)[CH](CC(=O)[*:2])N[*:1]; ξLeu(3ξ-OH) = CC(C)C(O)C(N)C(=O)O; X14 = O=C(C1C(O)CCN1[*:1])[*:2]

Test system: P388 leukemia ip, CD2F1 mice, survival T/C
Assay: NCI In Vivo Anticancer Drug Screen. Data for tumor model P388 Leukemia (intraperitoneal) in CD2F1 (CDF1) mice
Conditions: endpoint: median survival time, higher = longer survival
Procedure, shortened: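 Mice carrying the transplanted tumor received test compound or vehicle. Survival was recorded in each group, and the value is the treated-group measurement divided by that of the vehicle-treated control group.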

[1] = dose: 1.0 mg/kg/injection, schedule: Q01DX001 (ip), vehicle: water
[2] = dose: 100.0 mg/kg/injection, schedule: Q01DX005 (ip), vehicle: saline with Tween-80
[3] = dose: 200.0 mg/kg/injection, schedule: Q01DX005 (ip), vehicle: saline with Tween-80
[4] = dose: 60.0 mg/kg/injection, schedule: Q01DX005 (ip), vehicle: saline with Tween-80
[5] = dose: 120.0 mg/kg/injection, schedule: Q01DX005 (ip), vehicle: saline with Tween-80
[6] = dose: 240.0 mg/kg/injection, schedule: Q01DX005 (ip), vehicle: saline with Tween-80
[7] = dose: 50.0 mg/kg/injection, schedule: Q01DX005 (ip), vehicle: saline with Tween-80
[8] = dose: 50.0 mg/kg/injection, schedule: Q01DX009 (ip), vehicle: saline
[9] = dose: 100.0 mg/kg/injection, schedule: Q01DX009 (ip), vehicle: saline
[10] = dose: 100.0 mg/kg/injection, schedule: Q01DX009 (ip), vehicle: saline with Tween-80
[11] = dose: 200.0 mg/kg/injection, schedule: Q01DX009 (ip), vehicle: saline with Tween-80

Compound: CC[C@H]1C[C@H]2CN(CCc3c([nH]c4ccccc34)[C@@](C(=O)OC)(c3cc4c(cc3OC)N(C=O)[C@H]3[C@@](O)(C(=O)OC)[C@H](OC(C)=O)[C@]5(CC)CCCN6CC[C@]43[C@@H]65)C2)C1
- T/C (dose: 0.5 mg/kg/injection, schedule: Q01DX001 (ip), vehicle: water): 109 % of control
- T/C [1]: 107 % of control
- T/C (dose: 8.0 mg/kg/injection, schedule: Q01DX001 (ip), vehicle: water): 119 % of control

Compound: S=C(N/N=C1/CCCC/C1=N/NC(=S)N1CCOCC1)N1CCOCC1
- T/C (dose: 1.56 mg/kg/injection, schedule: Q01DX005 (ip), vehicle: saline with Tween-80): 101 % of control and 103 % of control
- T/C (dose: 3.12 mg/kg/injection, schedule: Q01DX005 (ip), vehicle: saline with Tween-80): 99 % of control and 103 % of control and 104 % of control

Compound: Nc1nc(-c2ccccc2)c(Br)c(=O)[nH]1
- T/C [2]: 112 % of control
- T/C [3]: 105 % of control
- T/C (dose: 400.0 mg/kg/injection, schedule: Q01DX005 (ip), vehicle: saline with Tween-80): 100 % of control

Compound: Nc1cc(=O)[nH]c(=S)n1-c1ccc(Br)cn1
- T/C (dose: 100.0 mg/kg/injection, schedule: Q01DX001 (ip), vehicle: saline with Tween-80): 90 % of control
- T/C (dose: 200.0 mg/kg/injection, schedule: Q01DX001 (ip), vehicle: saline with Tween-80): 100 % of control
- T/C (dose: 400.0 mg/kg/injection, schedule: Q01DX001 (ip), vehicle: saline with Tween-80): 90 % of control

Compound: C[C@@]12C(=O)OC(=O)[C@]1(C)[C@H]1CC[C@@H]2O1
- T/C (dose: 0.5 mg/kg/injection, schedule: Q01DX005 (ip), vehicle: acetone): 105 % of control
- T/C (dose: 62.5 micrograms/kg/injection, schedule: Q01DX005 (ip), vehicle: acetone): 102 % of control
- T/C (dose: 125.0 micrograms/kg/injection, schedule: Q01DX005 (ip), vehicle: acetone): 107 % of control
- T/C (dose: 250.0 micrograms/kg/injection, schedule: Q01DX005 (ip), vehicle: acetone): 102 % of control
- T/C (dose: 500.0 micrograms/kg/injection, schedule: Q01DX005 (ip), vehicle: acetone): 102 % of control

Compound: C=C(C)C(=O)OCCn1c(=O)c2c(ncn2C)n(C)c1=O
- T/C [4]: 96 % of control
- T/C [5]: 101 % of control
- T/C [6]: 92 % of control

Compound: FC(F)(F)c1ccc(C(Nc2nncs2)Nc2nncs2)cc1
- T/C [7]: 93 % of control
- T/C [2]: 96 % of control
- T/C [3]: 105 % of control

Compound: COC(=O)[C@@H]1[C@H](O)[C@H](C)[C@H](O)[C@H](C)/C=C\C=C(C)C(=O)Nc2c(C)c(OC(C)=O)c3c(c2O)C(=O)C(C)=C2OCOC(=C23)C(C)=C[C@@](C)(O)[C@H](O)[C@@H](C)[C@H]1OC(C)=O
- T/C [8]: 96 % of control
- T/C [9]: 109 % of control and 96 % of control
- T/C (dose: 200.0 mg/kg/injection, schedule: Q01DX009 (ip), vehicle: saline): 99 % of control and 122 % of control
- T/C (dose: 400.0 mg/kg/injection, schedule: Q01DX009 (ip), vehicle: saline): 100 % of control

Compound: CCN(CC)CCCN(c1ccccc1)C1Cc2ccccc2C1
- T/C (dose: 15.0 mg/kg/injection, schedule: Q01DX009 (ip), vehicle: saline): 95 % of control
- T/C (dose: 30.0 mg/kg/injection, schedule: Q01DX009 (ip), vehicle: saline): 87 % of control
- T/C (dose: 60.0 mg/kg/injection, schedule: Q01DX009 (ip), vehicle: saline): 101 % of control

Compound: CO/C1=C\C(C)=C\C(C)C(O)C(C)C/C(C)=C/C=C/C(OC)C(C(C)C(O)C(C)C(=O)/C=C/C(C)C(C)O)OC1=O (configuration not stated)
- T/C (dose: 6.25 mg/kg/injection, schedule: Q01DX005 (ip), vehicle: other): 108 % of control
- T/C (dose: 12.5 mg/kg/injection, schedule: Q01DX005 (ip), vehicle: other): 98 % of control
- T/C (dose: 25.0 mg/kg/injection, schedule: Q01DX005 (ip), vehicle: other): 103 % of control
- T/C (dose: 25.0 mg/kg/injection, schedule: Q01DX005 (ip), vehicle: saline + Tween-80 + alcohol): 103 % of control
- T/C (dose: 50.0 mg/kg/injection, schedule: Q01DX005 (ip), vehicle: other): 106 % of control
- T/C (dose: 50.0 mg/kg/injection, schedule: Q01DX005 (ip), vehicle: saline + Tween-80 + alcohol): 94 % of control
- T/C (dose: 100.0 mg/kg/injection, schedule: Q01DX005 (ip), vehicle: saline + Tween-80 + alcohol): 94 % of control

Compound: CC1NC(=O)C(C(C)O)NC(=O)C(NC(=O)C(CO)NC(=O)CC(N)C(=O)O)C(C)OC(=O)C2C(O)CCN2C(=O)C(C(O)C(C)C)NC(=O)C(C(C)c2c[nH]c3ccccc23)NC(=O)/C(=C/c2c[nH]c3ccccc23)NC(=O)C2C(O)CCN2C(=O)CNC1=O (configuration not stated) (βAsp-STTAG[X14][X15][X16][ξLeu(3ξ-OH)][X14]; ester 2-C; configuration not given here)
- T/C [10]: 105 % of control
- T/C [11]: 89 % of control
- T/C (dose: 400.0 mg/kg/injection, schedule: Q01DX009 (ip), vehicle: saline with Tween-80): 91 % of control

Compound: CCSc1nc2c(N)nc(N)nc2[nH]c1=O
- T/C (dose: 100.0 mg/kg/injection, schedule: Q04DX003 (ip), vehicle: Klucel (hydroxypropylcellulose) (HPC)): 99 % of control
- T/C (dose: 200.0 mg/kg/injection, schedule: Q04DX003 (ip), vehicle: Klucel (hydroxypropylcellulose) (HPC)): 86 % of control

Compound: N#CC1(C#N)OC1(C#N)c1ccccc1 (configuration not stated)
- T/C (dose: 3.0 mg/kg/injection, schedule: Q01DX009 (ip), vehicle: saline with Tween-80): 100 % of control
- T/C (dose: 6.0 mg/kg/injection, schedule: Q01DX009 (ip), vehicle: saline with Tween-80): 100 % of control
- T/C (dose: 12.0 mg/kg/injection, schedule: Q01DX009 (ip), vehicle: saline with Tween-80): 100 % of control

Compound: COCN(C)N=Nc1ccc(Br)cc1
- T/C [7]: 95 % of control
- T/C [2]: 103 % of control
- T/C [3]: 102 % of control

Compound: Nc1ncccc1O
- T/C (dose: 2.5 mg/kg/injection, schedule: Q01DX009 (ip), vehicle: saline): 104 % of control
- T/C (dose: 5.0 mg/kg/injection, schedule: Q01DX009 (ip), vehicle: saline): 97 % of control
- T/C (dose: 10.0 mg/kg/injection, schedule: Q01DX009 (ip), vehicle: saline): 96 % of control
- T/C (dose: 20.0 mg/kg/injection, schedule: Q01DX009 (ip), vehicle: saline): 110 % of control
- T/C (dose: 40.0 mg/kg/injection, schedule: Q01DX009 (ip), vehicle: saline): 107 % of control

Compound: COc1cccc(/C=N/C(/N=C/c2cccc(OC)c2O)c2cccc(OC)c2O)c1O
- T/C [4]: 97 % of control
- T/C [5]: 97 % of control
- T/C [6]: 102 % of control

Compound: O=C(NO)C1CCCCC12OCCO2 (configuration not stated)
- T/C (dose: 100.0 mg/kg/injection, schedule: Q04DX002 (ip), vehicle: saline): 98 % of control
- T/C (dose: 200.0 mg/kg/injection, schedule: Q04DX002 (ip), vehicle: saline): 101 % of control
- T/C (dose: 400.0 mg/kg/injection, schedule: Q04DX002 (ip), vehicle: saline): 101 % of control

Compound: CCC1=CC2CN(CCc3c([nH]c4ccccc34)C(C(=O)OC)(c3cc4c(cc3OC)N(C=O)C3C(O)(C(=O)NC)C(OC(C)=O)C5(CC)C=CCN6CCC43C65)C2)C1 (configuration not stated)
- T/C [1]: 150 % of control
- T/C (dose: 2.0 mg/kg/injection, schedule: Q01DX001 (ip), vehicle: water): 153 % of control
- T/C (dose: 4.0 mg/kg/injection, schedule: Q01DX001 (ip), vehicle: water): 160 % of control

Compound: N#Cc1c(N)nc(-c2ccccc2)nc1Nc1ccccc1
- T/C [4]: 90 % of control
- T/C [5]: 104 % of control
- T/C [6]: 99 % of control

Compound: COc1ccc(/C=C/Cc2cc3c(cc2O)OCO3)cc1
- T/C [4]: 104 % of control
- T/C [5]: 101 % of control
- T/C [6]: 101 % of control

Compound: O=c1[nH]nc(NCCCCO)c2ccccc12
- T/C (dose: 50.0 mg/kg/injection, schedule: Q01DX009 (ip), vehicle: saline with Tween-80): 95 % of control
- T/C [10]: 95 % of control
- T/C [11]: 91 % of control

Compound: O=C(O)c1cnc2cc3c(cc2c1Nc1ccccc1)OCO3
- T/C (dose: 60.0 mg/kg/injection, schedule: Q01DX005 (ip), vehicle: Klucel (hydroxypropylcellulose) (HPC)): 99 % of control
- T/C (dose: 120.0 mg/kg/injection, schedule: Q01DX005 (ip), vehicle: Klucel (hydroxypropylcellulose) (HPC)): 102 % of control
- T/C (dose: 240.0 mg/kg/injection, schedule: Q01DX005 (ip), vehicle: Klucel (hydroxypropylcellulose) (HPC)): 90 % of control

Compound: OCC1OC(Nc2ccccc2/C=N\O)C(O)C1O (configuration not stated)
- T/C (dose: 12.5 mg/kg/injection, schedule: Q01DX009 (ip), vehicle: saline): 98 % of control
- T/C (dose: 25.0 mg/kg/injection, schedule: Q01DX009 (ip), vehicle: saline): 107 % of control and 96 % of control
- T/C [8]: 99 % of control and 115 % of control
- T/C [9]: 98 % of control and 95 % of control
